# Patent publication US20210196724A1, “BIARYL COMPOSITIONS AND METHODS FOR MODULATING A KINASE CASCADE” (Athenex, Inc., priority 2016, published 2021)
# Key:
# Format in all cases: cell-based
# 143B cells = assay: CellTiter-Glo cell viability, 143B; conditions: Homo sapiens, 72 h
# Experimental: (§1) The cell viability of 50 cancer cell lines was studied after treatment with Compound 121. Inhibition concentration values at 50% (IC50) were determined using CellTiter-Glo luminescent cell viability assay after incubation with different compound concentrations. GI50 values were determined according to the examples described above. Each cell line was treated with Compound 121, a standard chemotherapy drug as a reference control, and culture medium as a vehicle control.
# (§2) All cells were cultured in media supplemented with 10-15% FBS at 37° C. in the presence of 5% CO2 and at 95% humidity. The culture medium was purchased from GIBCO or Sigma, USA. Cisplatin was chosen as the reference control and purchased from Hospira Australia Pty Ltd. The cell lines studied are presented in Table 5.
# (§3) Cells were harvested during a logarithmic growth period and cell number count was determined using Count-star. Cell concentrations were adjusted to 4.44×10^4 cells/mL with respective culture medium. 90 μL of cell suspensions were added to two 96-well plates (plates A and B) with a final cell density of 4×10^3 cells/well.
# (§4) 10 μL of culture medium was added to each well of plate A for TO reading. The plate was allowed to equilibrate at room temperature for approximately 30 min. 50 μL of CellTiter-Glo was added to each well and the contents were mixed for 5 min on an orbital shaker to induce cell lysis. The plate was allowed to incubate at room temperature for 20 min to stabilize luminescent signal.
# (§5) 10 μM Compound 121 in media was serially diluted 3.16-fold to achieve 9 dose levels. Similarly, 100 μM reference control in media was serially diluted 3.16-fold to prepare reference control solutions. 10 μL drug solution and 10 μL of reference control was dispensed into each well in plate B.
# (§6) Test plate B was incubated for 72 h in a humidified incubator at 37° C. in the presence of 5% CO2 and then subjected to CTG assay. The plate was allowed to equilibrate at room temperature for about 30 min. 50 μL of CellTiter-Glo was added to each well and the contents were mixed for 5 min on an orbital shaker to induce cell lysis. The plate was allowed to incubate at room temperature for 20 min to stabilize luminescent signal.
# (§7) IC50 and GI50 values for each of the 50 cell lines are presented in Table 6 and were calculated based on the dose-response curves depicted in FIGS. 1-50. The dose-response curves were fitted using nonlinear regression model with a sigmoidal dose response. The formula for calculating survival rate was calculated by the formula:
# (§8) Survival rate (%)=(LumTest article−LumMedium control)/(LumNone treated−LumMedium control)×100.
# HT-1080 cells = assay: CellTiter-Glo cell viability, HT-1080; conditions: Homo sapiens, 72 h
# Experimental: as §1, §2, §3, §4, §5, §6, §7, §8
# KP4 cells = assay: CellTiter-Glo cell viability, KP4; conditions: Homo sapiens, KP-4, 72 h
# Experimental: as §1, §2, §3, §4, §5, §6, §7, §8
# HCT-15 cells = assay: CellTiter-Glo cell viability, HCT-15; conditions: Homo sapiens, 72 h
# Experimental: as §1, §2, §3, §4, §5, §6, §7, §8
# MDA-MB-453 cells = assay: CellTiter-Glo cell viability, MDA-MB-453; conditions: Homo sapiens, 72 h
# Experimental: as §1, §2, §3, §4, §5, §6, §7, §8
# JHH-5 cells = assay: CellTiter-Glo cell viability, JHH-5; conditions: 72 h
# Experimental: as §1, §2, §3, §4, §5, §6, §7, §8
# A-172 cells = assay: CellTiter-Glo cell viability, A-172; conditions: Homo sapiens, 72 h
# Experimental: as §1, §2, §3, §4, §5, §6, §7, §8
# NCI-H1155 cells = assay: CellTiter-Glo cell viability, NCI-H1155; conditions: Homo sapiens, 72 h
# Experimental: as §1, §2, §3, §4, §5, §6, §7, §8
# MX-1 cells = assay: CellTiter-Glo cell viability, MX-1; conditions: Homo sapiens, MX1, 72 h
# Experimental: as §1, §2, §3, §4, §5, §6, §7, §8
# HUH-7 cells = assay: CellTiter-Glo cell viability, HUH-7; conditions: Homo sapiens, 72 h
# Experimental: as §1, §2, §3, §4, §5, §6, §7, §8
# HeLa cells = assay: CellTiter-Glo cell viability, HeLa; conditions: Homo sapiens, 72 h
# Experimental: as §1, §2, §3, §4, §5, §6, §7, §8
# NCI-H1975 cells = assay: CellTiter-Glo cell viability, NCI-H1975; conditions: Homo sapiens, 72 h
# Experimental: as §1, §2, §3, §4, §5, §6, §7, §8
# HL-60 cells = assay: CellTiter-Glo cell viability, HL-60; conditions: Homo sapiens, 72 h
# Experimental: as §1, §2, §3, §4, §5, §6, §7, §8
# KARPAS-299 cells = assay: CellTiter-Glo cell viability, KARPAS-299; conditions: Homo sapiens, 72 h
# Experimental: as §1, §2, §3, §4, §5, §6, §7, §8
# NCI-H209 cells = assay: CellTiter-Glo cell viability, NCI-H209; conditions: Homo sapiens, 72 h
# Experimental: as §1, §2, §3, §4, §5, §6, §7, §8
# PC-3 cells = assay: CellTiter-Glo cell viability, PC-3; conditions: Homo sapiens, 72 h
# Experimental: as §1, §2, §3, §4, §5, §6, §7, §8
# MES-SA/DX5 cells = assay: CellTiter-Glo cell viability, MES-SA/DX5; conditions: Homo sapiens, 72 h
# Experimental: as §1, §2, §3, §4, §5, §6, §7, §8
# HuT 78 cells = assay: CellTiter-Glo cell viability, HuT 78; conditions: Homo sapiens, HuT78, 72 h
# Experimental: as §1, §2, §3, §4, §5, §6, §7, §8
# A2058 cells = assay: CellTiter-Glo cell viability, A2058; conditions: Homo sapiens, 72 h
# Experimental: as §1, §2, §3, §4, §5, §6, §7, §8
# SNU-5 cells = assay: CellTiter-Glo cell viability, SNU-5; conditions: Homo sapiens, SNU-5, SN1J-5 cells, 72 h
# Experimental: as §1, §2, §3, §4, §5, §6, §7, §8
# EBC-1 cells = assay: CellTiter-Glo cell viability, EBC-1; conditions: Homo sapiens, 72 h
# Experimental: as §1, §2, §3, §4, §5, §6, §7, §8
# [1] = top conc. 10 μM Compound 121, 100 μM cisplatin
smiles,measurement,setting,value
Cc1cc(N2CCOC[C@@H]2C)ccc1-c1ccc(CC(=O)NCc2ccc(F)cc2)nc1 [Compound 121],GI50,143B cells; read-out: Absolute GI50,8 nM
same,IC50,143B cells; read-out: Absolute IC50,8 nM
same,inhibition at 10 µM,143B cells; [1],97.8%
same,GI50,HT-1080 cells; read-out: Absolute GI50,5 nM
same,IC50,HT-1080 cells; read-out: Absolute IC50,5 nM
same,inhibition at 10 µM,HT-1080 cells; [1],97.2%
same,GI50,KP4 cells; read-out: Absolute GI50,7 nM
same,IC50,KP4 cells; read-out: Absolute IC50,8 nM
same,inhibition at 10 µM,KP4 cells; [1],90.8%
same,GI50,HCT-15 cells; read-out: Absolute GI50,5 nM
same,IC50,HCT-15 cells; read-out: Absolute IC50,6 nM
same,inhibition at 10 µM,HCT-15 cells; [1],96.8%
same,GI50,MDA-MB-453 cells; read-out: Absolute GI50,4 nM
same,IC50,MDA-MB-453 cells; read-out: Absolute IC50,4 nM
same,inhibition at 10 µM,MDA-MB-453 cells; [1],67.5%
same,GI50,JHH-5 cells; read-out: Absolute GI50,7 nM
same,IC50,JHH-5 cells; read-out: Absolute IC50,7 nM
same,inhibition at 10 µM,JHH-5 cells; [1],80.5%
same,GI50,A-172 cells; read-out: Absolute GI50,6 nM
same,IC50,A-172 cells; read-out: Absolute IC50,7 nM
same,inhibition at 10 µM,A-172 cells; [1],92.8%
same,GI50,NCI-H1155 cells; read-out: Absolute GI50,6 nM
same,IC50,NCI-H1155 cells; read-out: Absolute IC50,7 nM
same,inhibition at 10 µM,NCI-H1155 cells; [1],87.3%
same,GI50,MX-1 cells; read-out: Absolute GI50,11 nM
same,IC50,MX-1 cells; read-out: Absolute IC50,18 nM
same,inhibition at 10 µM,MX-1 cells; [1],66.8%
same,GI50,HUH-7 cells; read-out: Absolute GI50,7 nM
same,IC50,HUH-7 cells; read-out: Absolute IC50,9 nM
same,inhibition at 10 µM,HUH-7 cells; [1],60.8%
same,GI50,HeLa cells; read-out: Absolute GI50,4 nM
same,IC50,HeLa cells; read-out: Absolute IC50,4 nM
same,inhibition at 10 µM,HeLa cells; [1],89.5%
same,GI50,NCI-H1975 cells; read-out: Absolute GI50,6 nM
same,IC50,NCI-H1975 cells; read-out: Absolute IC50,6 nM
same,inhibition at 10 µM,NCI-H1975 cells; [1],83.7%
same,GI50,HL-60 cells; read-out: Absolute GI50,7 nM
same,IC50,HL-60 cells; read-out: Absolute IC50,8 nM
same,inhibition at 10 µM,HL-60 cells; [1],99.8%
same,GI50,KARPAS-299 cells; read-out: Absolute GI50,6 nM
same,IC50,KARPAS-299 cells; read-out: Absolute IC50,6 nM
same,inhibition at 10 µM,KARPAS-299 cells; [1],99.4%
same,GI50,NCI-H209 cells; read-out: Absolute GI50,17 nM
same,IC50,NCI-H209 cells; read-out: Absolute IC50,20 nM
same,inhibition at 10 µM,NCI-H209 cells; [1],73.7%
same,GI50,PC-3 cells; read-out: Absolute GI50,8 nM
same,IC50,PC-3 cells; read-out: Absolute IC50,8 nM
same,inhibition at 10 µM,PC-3 cells; [1],93.3%
same,GI50,MES-SA/DX5 cells; read-out: Absolute GI50,7 nM
same,IC50,MES-SA/DX5 cells; read-out: Absolute IC50,7 nM
same,inhibition at 10 µM,MES-SA/DX5 cells; [1],97.8%
same,GI50,HuT 78 cells; read-out: Absolute GI50,8 nM
same,IC50,HuT 78 cells; read-out: Absolute IC50,9 nM
same,inhibition at 10 µM,HuT 78 cells; [1],95.2%
same,GI50,A2058 cells; read-out: Absolute GI50,8 nM
same,IC50,A2058 cells; read-out: Absolute IC50,8 nM
same,inhibition at 10 µM,A2058 cells; [1],98.1%
same,GI50,SNU-5 cells; read-out: Absolute GI50,11 nM
same,IC50,SNU-5 cells; read-out: Absolute IC50,12 nM
same,inhibition at 10 µM,SNU-5 cells; [1],96.2%
same,GI50,EBC-1 cells; read-out: Absolute GI50,4 nM
same,IC50,EBC-1 cells; read-out: Absolute IC50,4 nM
same,inhibition at 10 µM,EBC-1 cells; [1],56.8%
